Experimental findings from US7629356B2, “Substituted pyrrolo[3,4-b]pyridinamines and pharmaceutical compositions” (AstraZeneca AB, priority 2007, dated 2009) are described below.

This experiment concerns the target T1, human β-Secretase (soluble part AA1-AA460, sBACE-Fc) (Homo sapiens, UniProt P56817).
T1 construct: The soluble part of the human β-Secretase (AA1 -AA460) was cloned; Fc domain of IgG1; made in house
Put plainly: TR-FRET assay. It is filed as biochemical. The conditions noted are these: substrate (Europium)CEVNLDAEFK(Qsy7) 100 nM, pH 4.5, 15 min at RT. On the procedure:
The enzyme used in the IGEN Cleavage-, Fluorescent-, TR-FRET- and BiaCore assays is described as follows:
The soluble part of the human β-Secretase (AA1 -AA460) was cloned into the ASP2-Fc10-1-IRES-GFP-neoK mammalian expression vector. The gene was fused to the Fc domain of IgG1 (affinity tag) and stably cloned into HEK 293 cells. Purified sBACE-Fc is stored in Tris buffer, pH 9.2 and has a purity of 95%.
Enzyme was diluted to 6 μg/mL and the substrate (Europium)CEVNLDAEFK(Qsy7) to 200 nM in reaction buffer (NaAcetate, chaps, triton x-100, EDTA pH 4.5). Compounds were diluted to the desired concentration in dimethyl sulfoxide (final dimethyl sulfoxide concentration in assay is 5%). The assay was done in a Costar 384 well round bottom, low volume, non-binding surface plate (Corning #3676). Enzyme (9 μL) and 1 μL of compound in dimethyl sulfoxide was added to the plate, mixed and pre-incubated for 10 min. Substrate (10 μL) was added and the reaction proceeded in the dark for 15 min at RT. The reaction was stopped with the addition of 7 μL NaAcetate, pH 9. The fluorescence of the product was measured on a Victor II plate reader with an excitation wavelength of 340 nm and an emission wavelength of 615 nm. The final concentration of the enzyme was 2.7 μg/ml and the final concentration of the substrate was 100 nM (Km of 290 nM). The dimethyl sulfoxide control defined the 100% activity level and 0% activity was defined by exclusion of the enzyme (using reaction buffer instead).
For orientation: TR-FRET usually uses a lanthanide donor and a delayed reading to cut background.

The Ki is a dissociation constant, usually derived from enzyme kinetics or from competition with a known ligand. A high value points to weaker binding.

T1 sequence (P56817 22-460): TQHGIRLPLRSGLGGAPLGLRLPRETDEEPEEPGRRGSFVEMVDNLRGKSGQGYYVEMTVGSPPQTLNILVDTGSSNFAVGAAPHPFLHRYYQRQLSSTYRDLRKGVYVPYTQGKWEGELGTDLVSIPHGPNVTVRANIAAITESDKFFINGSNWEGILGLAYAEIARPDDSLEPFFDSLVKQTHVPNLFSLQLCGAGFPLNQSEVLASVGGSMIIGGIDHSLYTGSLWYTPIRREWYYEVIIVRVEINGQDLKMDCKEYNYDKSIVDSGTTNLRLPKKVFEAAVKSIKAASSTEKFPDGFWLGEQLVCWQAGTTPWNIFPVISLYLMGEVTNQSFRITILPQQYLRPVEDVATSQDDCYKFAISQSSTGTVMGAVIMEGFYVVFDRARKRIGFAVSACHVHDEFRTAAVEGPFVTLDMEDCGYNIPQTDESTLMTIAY

Compound `COc1ccc(C2(c3cccc(-c4cncnc4)c3)N=C(N)c3ncccc32)cc1` (stereo not drawn) [Example 5, 5-(4-Methoxyphenyl)-5-(3-pyrimidin-5-ylphenyl)-5H-pyrrolo[3,4-b]pyridin-7-amine] displayed a Ki of 282 nM. With `COc1ccc(C2(c3cccc(-c4cccnc4F)c3)N=C(N)c3ncccc32)cc1` (stereo not drawn) [Example 6, 5-[3-(2-Fluoropyridin-3-yl)phenyl]-5-(4-methoxyphenyl)-5H-pyrrolo[3,4-b]pyridin-7-amine], the affinity corresponds to a Ki of 275 nM. `COc1ccc(C2(c3cccc(-c4cncc(OC)c4)c3)N=C(N)c3ncccc32)cc1` (stereo not drawn) [Example 7, 5-(4-Methoxyphenyl)-5-[3-(5-methoxypyridin-3-yl)phenyl]-5H-pyrrolo[3,4-b]pyridin-7-amine] registered a Ki of 178 nM. For `COc1ccc(C2(c3cccc(-c4cccnc4)c3)N=C(N)c3ncccc32)cc1` (stereo not drawn) [Example 8, 5-(4-Methoxyphenyl)-5-(3-pyridin-3-ylphenyl)-5H-pyrrolo[3,4-b]pyridin-7-amine] the value was 339 nM; for `NC1=NC(c2ccncc2)(c2cccc(-c3cccnc3F)c2)c2cccnc21` (stereo not drawn) [Example 9, 5-[3-(2-Fluoropyridin-3-yl)phenyl]-5-pyridin-4-yl-5H-pyrrolo[3,4-b]pyridin-7-amine], 295 nM. For `NC1=NC(c2ccncc2)(c2cccc(-c3cncnc3)c2)c2cccnc21` (stereo not drawn) [Example 10, 5-Pyridin-4-yl-5-(3-pyrimidin-5-ylphenyl)-5H-pyrrolo[3,4-b]pyridin-7-amine], affinity was put at a Ki of 324 nM. In the case of `COc1ccc(F)c(-c2cccc(C3(c4ccncc4)N=C(N)c4ncccc43)c2)c1` (stereo not drawn) [Example 11, 5-(2′-Fluoro-5-methoxybiphenyl-3-yl)-5-pyridin-4-yl-5H-pyrrolo[3,4-b]pyridin-7-amine 0.25 acetate] it was 219 nM; in that of `COc1cccc(-c2cccc(C3(c4ccncc4)N=C(N)c4ncccc43)c2)c1F` (stereo not drawn) [Example 12, 5-(2′-Fluoro-3′-methoxybiphenyl-3-yl)-5-pyridin-4-yl-5H-pyrrolo[3,4-b]pyridin-7-amine 0.5 acetate], 398 nM. As for `NC1=NC(c2ccncc2)(c2cccc(-c3cncnc3)c2)c2cnccc21` (stereo not drawn) [Example 16, 3-Pyridin-4-yl-3-(3-pyrimidin-5-ylphenyl)-3H-pyrrolo[3,4-c]pyridin-1-amine], the Ki was found to be 91 nM. For `NC1=NC(c2ccncc2)(c2cccc(-c3cccnc3F)c2)c2cnccc21` (stereo not drawn) [Example 17, 3-[3-(2-Fluoropyridin-3-yl)phenyl]-3-pyridin-4-yl-3H-pyrrolo[3,4-c]pyridin-1-amine] the value was 62 nM. `NC1=NC(c2ccncc2)(c2cccc(-c3cccnc3F)c2)c2ncccc21` (stereo not drawn) [Example 21, 7-[3-(2-Fluoropyridin-3-yl)phenyl]-7-pyridin-4-yl-7H-pyrrolo[3,4-b]pyridin-5-amine] showed a Ki of 93 nM. As to `NC1=NC(c2ccncc2)(c2cccc(-c3cncnc3)c2)c2ncccc21` (stereo not drawn) [Example 22, 7-Pyridin-4-yl-7-(3-pyrimidin-5-ylphenyl)-7H-pyrrolo[3,4-b]pyridin-5-amine], the Ki turned out to be 170 nM. This Ki lies about 1.8-fold higher than the previous one.
